# According to patent US8067589B2, “Heterocyclic compounds useful in treating diseases and conditions” (Pfizer Inc, priority 2007, dated 2011):
# Target: human recombinant H-PGDS (Homo sapiens, UniProt O60760)
# Assay: Fluoresecence Intensity h-PGDSTBA Enzyme Assay
# Details: IC50, 5.0 μM PGH2, 2.5 mM L-Glutathione, 10 min preincubation, 4-parameter fit, highest inhibitor concentration typically 1 μM
# human recombinant H-PGDS, sequence (O60760 whole entry): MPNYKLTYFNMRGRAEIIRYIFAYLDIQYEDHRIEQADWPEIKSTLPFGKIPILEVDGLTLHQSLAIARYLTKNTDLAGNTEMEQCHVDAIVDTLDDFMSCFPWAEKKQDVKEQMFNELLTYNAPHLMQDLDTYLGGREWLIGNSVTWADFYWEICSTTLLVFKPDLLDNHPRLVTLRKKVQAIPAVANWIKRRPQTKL
row,SMILES,IC50 [nM]
1,"O=C(NC1CCN(CC2CCCC2)CC1)c1cnc(-c2cccc(F)c2)nc1 [Example 66, N-[1-(Cyclopentylmethyl)piperidin-4-yl]-2-(3-fluorophenyl)pyrimidine-5-carboxamide]",0.355
2,"CCC(CC)N1CCC(NC(=O)c2cnc(-c3cccc(F)c3)nc2)CC1 [Example 68, N-[1-(1-Ethylpropyl)piperidin-4-yl]-2-(3-fluorophenyl)pyrimidine-5-carboxamide]",0.373
3,"CCC(C)N1CCC(NC(=O)c2cnc(-c3cccc(F)c3)nc2)CC1 (stereo not shown) [Example 69, N-(1-sec-Butylpiperidin-4-yl)-2-(3-fluorophenyl)pyrimidine-5-carboxamide]",3.59
4,"Cc1cc(=O)[nH]c(N2CCC(NC(=O)c3cnc(-c4cccc(F)c4)nc3)CC2)n1 [Example 70, 2-(3-Fluorophenyl)-N-[1-(4-methyl-6-oxo-1,6-dihydropyrimidin-2-yl)piperidin-4-yl]pyrimidine-5-carboxamide]",0.962
5,"CN1CC[C@@H](NC(=O)c2cnc(-c3cccc(F)c3)nc2)[C@@H](Cc2ccccc2)C1 [Example 72, N-[(3S,4R)-3-Benzyl-1-methylpiperidin-4-yl]-2-(3-fluorophenyl)pyrimidine-5-carboxamide]",30
6,"O=C(NC1CCN(CC(F)(F)F)CC1)c1cnc(-c2cc(F)ccc2F)nc1 [Example 73, 2-(2,5-Difluorophenyl)-N-[1-(2,2,2-trifluoroethyl)piperidin-4-yl]pyrimidine-5-carboxamide]",1.84
7,"O=C(NC1CCN(c2ccc(C(=O)N3CCOCC3)cn2)CC1)c1cnc(-c2cc(F)ccc2F)nc1 [Example 75, 2-(2,5-Difluorophenyl)-N-{1-[5-(morpholin-4-ylcarbonyl)pyridin-2-yl]piperidin-4-yl}pyrimidine-5-carboxamide]",18.3
8,"CN1CCc2nc(N3CC[C@@H](NC(=O)c4cnc(-c5cccc(F)c5)nc4)C3)ncc2C1 [Example 78a, 2-(3-Fluorophenyl)-N-[(3R)-1-(6-methyl-5,6,7,8-tetrahydropyrido[4,3-d]pyrimidin-2-yl)pyrrolidin-3-yl]pyrimidine-5-carboxamide]",13
9,"CN1CCc2nc(N3CC[C@H](NC(=O)c4cnc(-c5cccc(F)c5)nc4)C3)ncc2C1 [Example 78b, 2-(3-Fluorophenyl)-N-[(3S)-1-(6-methyl-5,6,7,8-tetrahydropyrido[4,3-d]pyrimidin-2-yl)pyrrolidin-3-yl]pyrimidine-5-carboxamide]",1
10,"O=C(N[C@@H]1CCN(Cc2ccccc2)C1)c1cnc(-c2cccc(F)c2)nc1 [Example 79, N-[(3R)-1-Benzylpyrrolidin-3-yl]-2-(3-fluorophenyl)pyrimidine-5-carboxamide]",0.346
11,"Cc1nc(N2CCC(NC(=O)c3cnc(-c4cccc(F)c4)nc3)C2)ncc1S(C)(=O)=O (stereo not shown) [Example 80, 2-(3-Fluorophenyl)-N-{1-[4-methyl-5-(methylsulfonyl)pyrimidin-2-yl]pyrrolidin-3-yl}pyrimidine-5-carboxamide]",0.211
12,"O=C(NC1CCN(c2ncc3c(n2)CCOC3)C1)c1cnc(-c2cccc(F)c2)nc1 (stereo not shown) [Example 81, N-[1-(7,8-Dihydro-5H-pyrano[4,3-d]pyrimidin-2-yl)pyrrolidin-3-yl]-2-(3-fluorophenyl)pyrimidine-5-carboxamide]",0.219
13,"CC(=O)N1CC[C@@H](NC(=O)c2cnc(-c3cccc(F)c3)nc2)C1 [Example 88, N-[(3R)-1-Acetylpyrrolidin-3-yl]-2-(3-fluorophenyl)pyrimidine-5-carboxamide]",1.58
14,"O=C(NC1CCN(C2Cc3ccccc3C2)C1=O)c1cnc(-c2cccc(F)c2)nc1 (stereo not shown) [Example 90, N-[1-(2,3-Dihydro-1H-inden-2-yl)-2-oxopyrrolidin-3-yl]-2-(3-fluorophenyl)pyrimidine-5-carboxamide]",0.808
15,"CCCCOCCCN1CCC(NC(=O)c2cnc(-c3cccc(F)c3)nc2)C1=O (stereo not shown) [Example 91, N-[1-(3-Butoxypropyl)-2-oxopyrrolidin-3-yl]-2-(3-fluorophenyl)pyrimidine-5-carboxamide]",2.8
16,"O=C(NC1CN(c2cnc3ccccc3n2)C1)c1cnc(-c2cccc(F)c2)nc1 [Example 105, 2-(3-Fluorophenyl)-N-(1-quinoxalin-2-ylazetidin-3-yl)pyrimidine-5-carboxamide]",0.364
17,"CC(C)(C)C(=O)N1CC(NC(=O)c2cnc(-c3cccc(F)c3)nc2)C1 [Example 106, N-[1-(2,2-Dimethylpropanoyl)azetidin-3-yl]-2-(3-fluorophenyl)pyrimidine-5-carboxamide]",2.98
18,"O=C(NC1CCN(CC(F)(F)F)CC1)c1cnc(-c2ccccc2CO)nc1 [Example 113, 2-[2-(Hydroxymethyl)phenyl]-N-[1-(2,2,2-trifluoroethyl)piperidin-4-yl]pyrimidine-5-carboxamide]",1010
19,"COC(=O)c1cccc(-c2ncc(C(=O)NC3CCN(CC(F)(F)F)CC3)cn2)c1 [Example 125, Methyl 3-[5-({[1-(2,2,2-trifluoroethyl)piperidin-4-yl]amino}carbonyl)pyrimidin-2-yl]benzoate]",270
20,"CC(=O)c1cccc(-c2ncc(C(=O)NC3CCN(C(=O)C(C)(C)C)CC3)cn2)c1 [Example 142, 2-(3-Acetylphenyl)-N-[1-(2,2-dimethylpropanoyl)piperidin-4-yl]pyrimidine-5-carboxamide]",64
21,"O=C(NC1CCN(Cc2ccccn2)CC1)c1cnc(-c2cccc(CO)c2)nc1 [Example 159, 2-[3-(Hydroxymethyl)phenyl]-N-[1-(pyridin-2-ylmethyl)piperidin-4-yl]pyrimidine-5-carboxamide]",2040

# Next, values leading:
row,IC50 [nM],SMILES
1,30,"O=C(NC1CCN(Cc2ccc(C(F)(F)F)cc2)CC1)c1cnc(-c2cccc(F)c2)nc1 [Example 67, 2-(3-Fluorophenyl)-N-{1-[4-(trifluoromethyl)benzyl]piperidin-4-yl}pyrimidine-5-carboxamide]"
2,0.355,"CC(C)(C)OC(=O)N1C[C@@H]2[C@H](C1)[C@H]2NC(=O)c1cnc(-c2cccc(F)c2)nc1 [Example 71, tert-Butyl (1R,5S,6s)-6-({[2-(3-fluorophenyl)pyrimidin-5-yl]carbonyl}amino)-3-azabicyclo[3.1.0]hexane-3-carboxylate]"
3,3.2,"CCOC(=O)N1CCC(NC(=O)c2cnc(-c3cc(F)ccc3F)nc2)CC1 [Example 74, Ethyl 4-({[2-(2,5-difluorophenyl)pyrimidin-5-yl]carbonyl}amino)piperidine-1-carboxylate]"
4,0.595,"O=C(NC1CCN(c2ncc3c(n2)CCOC3)CC1)c1cnc(-c2cccc(F)c2)nc1 [Example 76, N-[1-(7,8-Dihydro-5H-pyrano[4,3-d]pyrimidin-2-yl)piperidin-4-yl]-2-(3-fluorophenyl)pyrimidine-5-carboxamide]"
5,0.379,"CN1CCc2nc(N3CCC(NC(=O)c4cnc(-c5cccc(F)c5)nc4)C3)ncc2C1 (stereo not shown) [Example 78, 2-(3-Fluorophenyl)-N-[1-(6-methyl-5,6,7,8-tetrahydropyrido[4,3-d]pyrimidin-2-yl)pyrrolidin-3-yl]pyrimidine-5-carboxamide]"
6,0.658,"CCOC(=O)N1CCC(NC(=O)c2cnc(-c3cccc(F)c3)nc2)C1 (stereo not shown) [Example 82, Ethyl 3-({[2-(3-fluorophenyl)pyrimidin-5-yl]carbonyl}amino)pyrrolidine-1-carboxylate]"
7,1.18,"O=C(NC1CCN(Cc2cccc(Cl)c2)C1=O)c1cnc(-c2cccc(F)c2)nc1 (stereo not shown) [Example 83, N-[1-(3-Chlorobenzyl)-2-oxopyrrolidin-3-yl]-2-(3-fluorophenyl)pyrimidine-5-carboxamide]"
8,0.987,"O=C(NC1CCN(Cc2ccccc2C(F)(F)F)C1=O)c1cnc(-c2cccc(F)c2)nc1 (stereo not shown) [Example 84, 2-(3-Fluorophenyl)-N-{2-oxo-1-[2-(trifluoromethyl)benzyl]pyrrolidin-3-yl}pyrimidine-5-carboxamide]"
9,2.34,"O=C(NC1CCN(Cc2c(F)ccc(F)c2Cl)C1=O)c1cnc(-c2cccc(F)c2)nc1 (stereo not shown) [Example 85, N-[1-(2-Chloro-3,6-difluorobenzyl)-2-oxopyrrolidin-3-yl]-2-(3-fluorophenyl)pyrimidine-5-carboxamide]"
10,6.43,"Cc1cc(CN2CCC(NC(=O)c3cnc(-c4cccc(F)c4)nc3)C2=O)ccc1F (stereo not shown) [Example 86, N-[1-(4-Fluoro-3-methylbenzyl)-2-oxopyrrolidin-3-yl]-2-(3-fluorophenyl)pyrimidine-5-carboxamide]"
11,6.57,"CC(C)N1CCC(NC(=O)c2cnc(-c3cccc(F)c3)nc2)C1 (stereo not shown) [Example 87, 2-(3-Fluorophenyl)-N-(1-isopropylpyrrolidin-3-yl)pyrimidine-5-carboxamide]"
12,0.147,"O=C(NC1CCN(c2ncc3c(n2)CCC3)C1)c1cnc(-c2cccc(F)c2)nc1 (stereo not shown) [Example 89, N-[1-(6,7-Dihydro-5H-cyclopenta[d]pyrimidin-2-yl)pyrrolidin-3-yl]-2-(3-fluorophenyl)pyrimidine-5-carboxamide]"
13,2.87,"CC(C)(C)OC(=O)N1C[C@H](NC(=O)c2cnc(-c3cccc(F)c3)nc2)[C@@H](F)C1 [Example 92, tert-Butyl (3S,4S)-3-fluoro-4-({[2-(3-fluorophenyl)pyrimidin-5-yl]carbonyl}amino)pyrrolidine-1-carboxylate]"
14,0.815,"Cc1cc(C)c(C#N)c(N2CC(NC(=O)c3cnc(-c4cccc(F)c4)nc3)C2)n1 [Example 103, N-[1-(3-Cyano-4,6-dimethylpyridin-2-yl)azetidin-3-yl]-2-(3-fluorophenyl)pyrimidine-5-carboxamide]"
15,0.706,"O=C(NC1CN(c2nnnn2-c2ccccc2)C1)c1cnc(-c2cccc(F)c2)nc1 [Example 104, 2-(3-Fluorophenyl)-N-[1-(1-phenyl-1H-tetrazol-5-yl)azetidin-3-yl]pyrimidine-5-carboxamide]"
16,9460,"CC(=O)c1ccccc1-c1ncc(C(=O)NC2CCN(CC(F)(F)F)CC2)cn1 [Example 119, 2-(2-Acetylphenyl)-N-[1-(2,2,2-trifluoroethyl)piperidin-4-yl]pyrimidine-5-carboxamide]"
